Measured values taken from PubChem BioAssay (NCI).
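96-well plates; 48 h exposure; 5 concentrations. Endpoints by linear interpolation between flanking doses. Not reached: highest tested concentration assigned. TGI is the concentration that stops growth completely.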

How the values were obtained:
Assay in all cases: growth of human tumour cells (NCI), 48 h
SNB-19 CNS = test system: SNB-19 CNS
HCT-116 colon = test system: HCT-116 colon
U251 CNS = test system: U251 CNS
SK-MEL-2 melanoma = test system: SK-MEL-2 melanoma
MOLT-4 leukemia = test system: MOLT-4 leukemia
UACC-257 melanoma = test system: UACC-257 melanoma
KM12 colon = test system: KM12 colon
SW-620 colon = test system: SW-620 colon
A498 renal = test system: A498 renal
K-562 leukemia = test system: K-562 leukemia
PC-3 prostate = test system: PC-3 prostate
NCI-H522 lung = test system: NCI-H522 lung
MDA-N = test system: MDA-N
MCF7 breast = test system: MCF7 breast
COLO 205 colon = test system: COLO 205 colon
MDA-MB-231 breast = test system: MDA-MB-231 breast
SF-268 CNS = test system: SF-268 CNS
RXF 393 renal = test system: RXF 393 renal
NCI-H226 lung = test system: NCI-H226 lung
HOP-92 NSCLC = test system: HOP-92 NSCLC

Row | Structure (SMILES) | TGI (SNB-19 CNS) [µM] | TGI (HCT-116 colon) [µM] | TGI (U251 CNS) [µM] | TGI (SK-MEL-2 melanoma) [µM] | TGI (MOLT-4 leukemia) [µM] | TGI (UACC-257 melanoma) [µM] | TGI (KM12 colon) [µM] | TGI (SW-620 colon) [µM] | TGI (A498 renal) [µM] | TGI (K-562 leukemia) [µM] | TGI (PC-3 prostate) [µM] | TGI (NCI-H522 lung) [µM] | TGI (MDA-N) [µM] | TGI (MCF7 breast) [µM] | TGI (COLO 205 colon) [µM] | TGI (MDA-MB-231 breast) [µM] | TGI (SF-268 CNS) [µM] | TGI (RXF 393 renal) [µM] | TGI (NCI-H226 lung) [µM] | TGI (HOP-92 NSCLC) [µM]
1 | Cc1cc(S(=O)(=O)Nc2nnc3ccccn23)c(S)cc1Cl | > 100 | > 100 | > 100 | > 100 | > 100 | > 100 | > 100 | > 100 | > 100 | > 100 | > 100 | > 100 | > 100 | > 100 | > 100 | > 100 |  |  |  | 
2 | COC(=O)CN1C(=O)C2(C(=O)OC)OC1(c1ccc([N+](=O)[O-])cc1)C1C(=O)N(c3ccccc3)C(=O)C12 (configuration not stated) | > 100 | > 100 | > 100 | > 100 | > 100 | > 100 | > 100 | > 100 | > 100 |  | > 100 | > 100 | > 100 |  | > 100 | > 100 | > 100 | > 100 | > 100 | 
3 | COc1ccc(-c2csc(Cc3nc4c(Br)cc(Br)cc4c(=O)n3-c3ccc(OC)cc3)n2)cc1 | 50.6 | > 100 | > 100 | > 100 | > 100 | > 100 | > 100 | > 100 | > 100 |  | > 100 |  | > 100 | > 100 | > 100 | > 100 |  | > 100 | > 100 | > 100
4 | C=CCOCn1cc(F)c(=O)[nH]c1=O | > 100 | > 100 |  |  | > 100 | > 100 | > 100 | > 100 | > 100 | > 100 | > 100 | > 100 | > 100 | > 100 | > 100 | > 100 | > 100 |  | > 100 | 
5 | Nc1cc2ncnn2c(SCC(=O)N/N=C/C(Br)=C\c2ccccc2)n1 | > 100 | > 100 | 20.7 |  | 71.7 | 25.3 | 52.7 | 30.5 |  | > 100 | 27.7 | 22.9 | 31.6 | 38.8 | 41.1 | 40 |  | 42.2 | 68.6 | 
6 | COc1c(C(C)(C)C)cc(CC2C(=O)C=CC2=O)cc1C(C)(C)C | 33.9 | 13 | 35.4 | 36.7 | 10.3 | 32.4 | 34 | 28.2 | 32.9 | 14.1 | 35.8 | 5.03 | 39.6 | 45.5 | 24 | 36.5 | 40 | 30.4 |  | 37
7 | CC(C)(C)OC(=O)[C@@H]1ON2O[C@H](OC3CCCC3(c3ccccc3)c3ccccc3)C[C@H]3OC(=O)[C@@H]1[C@H]32 (some centres not stated) | > 100 | > 100 | > 100 | 51.8 |  | > 100 | > 100 | > 100 |  | > 100 | > 100 | > 100 | > 100 | > 100 | > 100 | > 100 | > 100 | 92.1 | > 100 | 
8 | CS(=O)(=O)OCCCSCCSCCCOS(C)(=O)=O | > 100 | > 100 | > 100 |  | > 100 | > 100 | > 100 | > 100 |  | > 100 | > 100 | > 100 | > 100 | > 100 | > 100 | > 100 | > 100 |  |  | > 100
9 | C=CCN1C[C@H](C)N([C@H](c2ccc(C(=O)N(CC)CC)cc2)c2cccc(OC)c2)C[C@H]1C | > 100 | > 100 | > 100 | > 100 | 99.5 | 52.3 | > 100 | > 100 | > 100 |  | > 100 | > 100 | > 100 | > 100 | 38.7 | > 100 | > 100 |  | 95.6 | 63.9
10 | O=[N+]([O-])c1ccc2sc(/C=N/c3ccccn3)cc2c1 | > 100 | > 100 | > 100 | > 100 | 53.5 | > 100 | > 100 | > 100 | > 100 | 96.6 | > 100 | > 100 | > 100 | > 100 | > 100 | > 100 | 94 | > 100 |  | > 100
11 | O=[N+]([O-])c1cc(N=Nc2c(O)ccc3cc(S(=O)(=O)O)ccc23)c(O)c([N+](=O)[O-])c1 | > 100 | > 100 | > 100 | > 100 | > 100 | > 100 | > 100 | > 100 |  | > 100 | > 100 | > 100 | > 100 |  | > 100 | > 100 | > 100 | > 100 | > 100 | > 100
12 | CO[C@]12S[C@@H]3CCCC[C@@]31C(C)(C)C(=O)N2c1ccccc1 | > 100 | > 100 | > 100 | 95.5 | 78.2 | > 100 | > 100 | > 100 | > 100 | > 100 | 96.7 | > 100 | > 100 | > 100 | 44 | > 100 | > 100 | > 100 |  | > 100
13 | COc1ccccc1/C=C1\S/C(=N/Nc2nc(C)c(C(C)=O)s2)NC1=O | > 100 | > 100 | > 100 | > 100 | > 100 | > 100 | > 100 | > 100 | 45.5 | > 100 | > 100 |  | 88.1 | 67 | 46.2 | 65 | 96.6 | > 100 | 39.8 | 48
